Legend:
PKR K410E = PKR K410E (Homo sapiens, UniProt P30613, K410E); assay: PKR mutant assay (K410E), AC50, LDH/NADH-coupled, absorbance at 340 nm; assay type: biochemical; settings: for AC50: Table 2, enzyme assay
In short: (§1)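 LDH/NADH-coupled read-out at 340 nm after ADP (0.2-1.65 mM) addition at room temperature. Beforehand, wild-type, K410E or R510Q human PKR (40-400 ng/well) sat 60 min with compound (top 100 μM, 3-fold, 11 points) plus PEP 0.1-0.5 mM, 180 μM NADH in 50 mM Tris pH 7.5, 100 mM KCl, 5 mM MgCl2, 1 mM DTT, 0.03% BSA.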

wild type PKR [1] = biological target: T1, wild type PKR (Homo sapiens, UniProt P30613); assay: PKR (wild type) enzyme AC50 assay, LDH/NADH-coupled, absorbance at 340 nm; assay type: biochemical; settings: for AC50: Table 2, enzyme assay, read-out: PKR WT AC50; for EC50: Table 4, AC50, enzyme assay, read-out: PKR WT
T1 sequence (P30613 whole entry): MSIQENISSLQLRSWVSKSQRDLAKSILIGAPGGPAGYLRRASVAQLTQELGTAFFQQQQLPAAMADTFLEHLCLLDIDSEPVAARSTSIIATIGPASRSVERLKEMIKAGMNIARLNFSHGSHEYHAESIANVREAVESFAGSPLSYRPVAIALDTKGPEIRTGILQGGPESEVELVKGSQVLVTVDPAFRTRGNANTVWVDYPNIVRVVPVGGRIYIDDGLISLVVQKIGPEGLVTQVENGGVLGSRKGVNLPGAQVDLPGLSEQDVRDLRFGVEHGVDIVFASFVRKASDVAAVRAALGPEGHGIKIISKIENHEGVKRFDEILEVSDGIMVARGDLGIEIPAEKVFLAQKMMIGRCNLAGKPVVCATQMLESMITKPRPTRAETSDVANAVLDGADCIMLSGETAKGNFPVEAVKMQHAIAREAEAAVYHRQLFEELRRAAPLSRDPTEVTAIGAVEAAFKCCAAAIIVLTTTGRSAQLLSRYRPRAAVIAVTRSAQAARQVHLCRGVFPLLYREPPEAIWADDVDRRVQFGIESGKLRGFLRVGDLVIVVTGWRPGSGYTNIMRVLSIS
In short: as §1

wild type PKR [2] = biological target: T1, wild type PKR; assay: Cell based ATP assay in purified red blood cells (Cell-Titer-Glo); set-up: endogenous in cells; host or cells: purified red blood cells from healthy volunteers; settings: overnight at 37° C., ATP levels; for Cell based ATP assay AC50 / AC50: Table 2, RBCs
In short: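 ATP levels were quantified by Cell-Titer-Glo after overnight 37 °C exposure of cells to compound (1:4 dilution series, 0.1% DMSO final). The cells were human erythrocytes, filter-purified to remove leukocytes and plated at 1×10^7 cells/mL in AGAM medium.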

PKR R510Q = PKR R510Q (Homo sapiens, UniProt P30613, R510Q); assay: PKR mutant assay (R510Q), AC50, LDH/NADH-coupled, absorbance at 340 nm; assay type: biochemical; settings: for AC50: read-out: PK R510Q AC50; for EC50: read-out: PK R510Q
PKR R510Q, sequence (P30613 whole entry R510Q): as the sequence (P30613 whole entry) above, with R510Q counted along it
In short: as §1

PKR K410E, sequence (P30613 whole entry K410E): as the sequence (P30613 whole entry) above, with K410E counted along it

| SMILES | AC50 (PKR K410E) [nM] | AC50 (wild type PKR [1]) [nM] | EC50 (wild type PKR [1]) [nM] | AC50 (wild type PKR [2]) [nM] | AC50 (PKR R510Q; Table 2, enzyme assay) [nM] | also measured |
| --- | --- | --- | --- | --- | --- | --- |
| CSc1nc2c(s1)c1cnn(Cc3ccccc3)c(=O)c1n2-c1nccs1 [Compound 409] | – | – | > 800 | – | – | PKR K410E (PKR K410E; Table 4, AC50, enzyme assay): No Fit; Cell based ATP assay (wild type PKR [2]; Table 4, AC50, RBCs): No Fit; PK R510Q (PKR R510Q; Table 4, AC50, enzyme assay): No Fit |
| Cn1c2nc(Cc3cc[nH]n3)sc2c2cnn(Cc3ccccc3)c(=O)c21 [Compound 193] | – | – | < 300 | – | – | EC50 (PKR K410E; Table 4, AC50, enzyme assay): < 300 nM; EC50 (wild type PKR [2]; Table 4, AC50, RBCs): ≤ 1000 nM; EC50 (PKR R510Q; Table 4, AC50, enzyme assay): < 300 nM |
| CNc1cccc(Cc2nc3c(s2)c2cnn(Cc4cccc5[nH]ncc45)c(=O)c2n3C)c1 [Compound 103] | < 300 | < 300 | – | ≤ 1000 | < 300 | – |
| Cn1c2nc(C(=O)NO)sc2c2cnn(Cc3cccc4[nH]ncc34)c(=O)c21 [Compound 138] | < 300 | 301 to 800 | – | > 1000 | 301 to 800 | – |
| COc1cccc(Cn2ncc3c4sc(C=O)nc4n(C)c3c2=O)c1 [Compound 38] | < 300 | < 300 | – | > 1000 | < 300 | – |
| Cn1ncc2cc(Cn3ncc4c5sc(Cc6cc[nH]n6)nc5n(C)c4c3=O)ccc21 [Compound 224] | – | – | < 300 | – | – | EC50 (PKR K410E; Table 4, AC50, enzyme assay): < 300 nM; EC50 (wild type PKR [2]; Table 4, AC50, RBCs): ≤ 1000 nM; EC50 (PKR R510Q; Table 4, AC50, enzyme assay): < 300 nM |
| Cn1c2nc(Cc3cccc4[nH]c(=O)[nH]c34)sc2c2cnn(Cc3cccc4[nH]ncc34)c(=O)c21 [Compound 245] | – | – | 301 to 800 | – | – | EC50 (PKR K410E; Table 4, AC50, enzyme assay): 301 to 800 nM; EC50 (wild type PKR [2]; Table 4, AC50, RBCs): ≤ 1000 nM; EC50 (PKR R510Q; Table 4, AC50, enzyme assay): < 300 nM |
| Cn1c2nc(Cc3ccc(Cl)nc3)sc2c2cnn(Cc3cccc4[nH]ncc34)c(=O)c21 [Compound 150] | > 800 | > 800 | – | > 1000 | > 800 | – |
| Cn1c2nc(Cc3cc(F)[nH]n3)sc2c2cnn(Cc3cccc4[nH]ncc34)c(=O)c21 [Compound 234] | – | – | < 300 | – | – | EC50 (PKR K410E; Table 4, AC50, enzyme assay): < 300 nM; EC50 (wild type PKR [2]; Table 4, AC50, RBCs): > 1000 nM; EC50 (PKR R510Q; Table 4, AC50, enzyme assay): < 300 nM |
| CSc1nc2c(s1)c1cnn(Cc3cccc4sc(N)nc34)c(=O)c1n2C [Compound 114] | < 300 | < 300 | – | – | < 300 | Cell based ATP assay AC50 (wild type PKR [2]): No Fit |
| Cn1c2nc(Cc3cccc(O)c3)sc2c2cnn(Cc3cccc4[nH]ncc34)c(=O)c21 [Compound 89] | < 300 | < 300 | – | ≤ 1000 | < 300 | – |
| Cn1c2nc(Cc3cc[nH]n3)sc2c2cnn(Cc3cccc(C#N)c3)c(=O)c21 [Compound 182] | < 300 | < 300 | – | ≤ 1000 | < 300 | – |
| Cn1c2nc(CNS(C)(=O)=O)sc2c2cnn(Cc3cccc4[nH]ncc34)c(=O)c21 [Compound 142] | < 300 | < 300 | – | ≤ 1000 | 301 to 800 | – |

Second part, led by results:

| AC50 (PKR K410E) [nM] | AC50 (wild type PKR [1]) [nM] | EC50 (wild type PKR [1]) [nM] | AC50 (wild type PKR [2]) [nM] | AC50 (PKR R510Q; Table 2, enzyme assay) [nM] | SMILES | also measured |
| --- | --- | --- | --- | --- | --- | --- |
| > 800 | > 800 | – | – | – | Cc1nc2c(s1)c1cnn(CCOCCO)c(=O)c1n2C [Compound 54] | Cell based ATP assay AC50 (wild type PKR [2]): No Fit; PK R510Q AC50 (PKR R510Q; Table 2, enzyme assay): No Fit |
| 301 to 800 | > 800 | – | > 1000 | 301 to 800 | Cn1c2nc(CN)sc2c2cnn(Cc3cccc4[nH]ncc34)c(=O)c21 [Compound 132] | – |
| > 800 | < 300 | – | ≤ 1000 | < 300 | Cc1nc2c(s1)c1cnn(Cc3cccc4[nH]ncc34)c(=O)c1n2C [Compound 26] | – |
| > 800 | > 800 | – | > 1000 | > 800 | Cc1nc2c(s1)c1cnn(Cc3c[nH]cn3)c(=O)c1n2C [Compound 42] | – |
| – | – | < 300 | – | – | C#CCn1ncc2c3sc(Cc4ccccn4)nc3n(C)c2c1=O [Compound 404] | EC50 (PKR K410E; Table 4, AC50, enzyme assay): < 300 nM; EC50 (wild type PKR [2]; Table 4, AC50, RBCs): ≤ 1000 nM; EC50 (PKR R510Q; Table 4, AC50, enzyme assay): < 300 nM |
| < 300 | < 300 | – | > 1000 | < 300 | Cc1nc2c(s1)c1cnn(Cc3ccc4[nH]ncc4c3)c(=O)c1n2C [Compound 29] | – |
| < 300 | < 300 | – | ≤ 1000 | < 300 | Cc1nc2c(s1)c1cnn(Cc3ccccc3F)c(=O)c1n2C [Compound 3] | – |
| – | – | > 800 | – | – | Cc1nc2c(s1)c1cnn(Cc3cccc(C(N)=O)c3)c(=O)c1n2C [Compound 395] | EC50 (PKR K410E; Table 4, AC50, enzyme assay): 301 to 800 nM; EC50 (wild type PKR [2]; Table 4, AC50, RBCs): > 1000 nM; EC50 (PKR R510Q; Table 4, AC50, enzyme assay): > 800 nM |
| > 800 | > 800 | – | > 1000 | > 800 | Cc1nc2c(s1)c1cnn(CCCO)c(=O)c1n2C [Compound 46] | – |
